Experimental data reported in PubChem BioAssay AID493250 (Broad Institute, 2011).
Active and inactive are the calls of the source.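 How the source made its calls: active means signal decrease with fitted half-maximal dose at or below ten times the highest valid tested dose; inconclusive means poor fit, or flat fit at 30 to 70% inhibition; inactive means the rest.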

Target: Zinc finger protein mex-5 (Caenorhabditis elegans) (UniProt Q9XUB2)
Assay: MEX-5 zinc finger-RNA interaction blockers – biochemical, fluorescence polarization, C. elegans, cherry-picked, round 3, dose response (AID 493250)
Conditions: purified MEX-5-MBP, FITC-TCR2 RNA fluorescence polarization; for activity change, negative = inhibition: at 10 µM (top of the series)

Chain of Zinc finger protein mex-5 (Caenorhabditis elegans) (Q9XUB2 whole entry, looked up): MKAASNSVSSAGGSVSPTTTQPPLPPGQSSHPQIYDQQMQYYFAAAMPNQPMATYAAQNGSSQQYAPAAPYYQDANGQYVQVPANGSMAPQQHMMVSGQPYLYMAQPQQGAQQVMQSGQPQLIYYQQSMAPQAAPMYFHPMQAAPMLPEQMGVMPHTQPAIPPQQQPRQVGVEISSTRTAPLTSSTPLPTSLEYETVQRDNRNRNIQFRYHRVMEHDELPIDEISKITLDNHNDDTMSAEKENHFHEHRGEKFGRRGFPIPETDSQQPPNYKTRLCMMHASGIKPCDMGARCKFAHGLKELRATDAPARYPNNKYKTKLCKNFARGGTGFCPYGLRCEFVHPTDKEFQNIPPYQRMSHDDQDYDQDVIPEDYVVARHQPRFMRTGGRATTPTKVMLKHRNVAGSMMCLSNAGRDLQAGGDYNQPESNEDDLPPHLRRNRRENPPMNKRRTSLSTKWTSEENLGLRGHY

Compound	activity change, negative = inhibition	AC50
O=C(NC1CCSc2ccccc21)c1ccccc1Br (configuration not stated)	inactive	–
Cc1ccc(Nc2nc(-c3ccc(O)cc3O)cs2)nc1	inactive	–
O=C(CCc1ccccc1)N/N=C\c1cc2c(cc1Br)OCO2	inactive	–
C#CCOCCOCCOCCNc1nc(N2CCN(C(=O)[C@H]([C@@H](C)CC)n3cc([C@@H](N)CO)nn3)CC2)nc(N2CCN(C(=O)[C@H]([C@@H](C)CC)n3cc([C@@H](N)CO)nn3)CC2)n1	inactive	–
O=C(NNC(=O)c1ccccc1Cl)c1csc(N2CCOCC2)n1	inactive	–
Cc1cc(/C=C2\C(=O)NC(=O)N(c3cccc(F)c3)C2=O)c(C)n1-c1cc(C(=O)O)cc(C(=O)O)c1	inactive	–
CCOc1nc(-c2ccccc2)c2cc(Br)ccc2n1	inactive	–
CCc1ccc(S(=O)(=O)/N=C2\C=C(Nc3ccc(C(=O)O)cc3)C(=O)c3ccccc32)cc1	inactive	–
COc1ccc(NC(=O)c2cccc(-c3ccc(O)cc3)c2)cn1	–	3.91 µM
CN=c1scc(-c2ccco2)n1/N=C/c1ccc(O)c(O)c1	inactive	–
Cc1cccn2c(=O)c3cc(S(=O)(=O)c4ccc(Br)cc4)c(=N)n(C4CCCCC4)c3nc12	inactive	–
CCOC(=O)C1C(=O)C=C(/C=C/c2ccc(N(C)C)cc2)CC1c1ccccc1 (configuration not stated)	–	7.41 µM
NC(=O)C(=O)N/N=C/c1c2ccccc2cc2ccccc12	inactive	–
NC1=NC(=O)/C(=C\c2ccc(O)c([N+](=O)[O-])c2)S1	inactive	–
O=[N+]([O-])c1ccc(C2=CSC3=NCCN23)cc1	inactive	–
Nc1c(C(=O)Nc2ccccc2)sc2nc3c(c(-c4ccco4)c12)CCC3	inactive	–
COc1ccc(/C=N/Nc2nc(=O)[nH]nc2C)cc1[N+](=O)[O-]	inactive	–
O=C1C(Br)=Cc2cccc3cccc1c23	–	3.06 µM
O=C(O)CCSc1nc2ccccc2n1Cc1ccccc1	inactive	–
CCN(CC)c1ccc(/C=C(/C#N)c2nc3ccc(C)cc3[nH]2)c(OC(C)C)c1	–	1.16 µM
O=C(O)COc1ccc(Br)cc1C(c1c(C(=O)O)[nH]c2ccccc12)c1c(C(=O)O)[nH]c2ccccc12	inactive	–
CCOC(=O)[C@]1(C#N)[C@@H]2C=CC(C(N)=O)=CN2[C@@H](C(N)=O)[C@@H]1c1ccc(F)cc1	inactive	–
Cc1c(Cl)cccc1NC(=O)C(=O)NNS(=O)(=O)c1ccc(F)cc1	inactive	–
CCc1nnc2c(N(C)C)nc3ccccc3n12	inactive	–

Compound	activity change, negative = inhibition	AC50
O=[N+]([O-])c1ccc(-c2cn3nc(-c4ccccc4)c(-c4ccccc4)nc3n2)cc1	inactive	–
CC(C)=CCc1c(O)cc(O)c2c(=O)c(O[C@@H]3O[C@@H](C)[C@H](O)[C@@H](O)[C@H]3O)c(-c3ccc(O)cc3)oc12	inactive	–
COc1ccc(NCc2n[nH]c(=O)c3ccccc23)cc1	inactive	–
Cc1cccc(C(=O)NNc2ncnc3c2cnn3C)c1	inactive	–
COC(=O)/C(C#N)=C/c1c(-c2ccccc2)nc2n1CCS2	inactive	–
CN(N)N=Nc1nc2c([nH]1)c(=O)n(C)c(=O)n2C	inactive	–
CCCCN(C(=O)c1ccc([N+](=O)[O-])o1)c1c(N)n(CCCC)c(=O)[nH]c1=O	inactive	–
C=CCn1c(O)c(N=NC(=S)Nc2cccc(C)c2)c2ccccc21	inactive	–
COc1cccc(C2C=C(c3cccs3)Nc3ncnn32)c1OC (configuration not stated)	–	> 10 µM (inactive)
Cc1ccc(-c2cc(C(=O)Nc3ccc(S(=O)(=O)Nc4ncccn4)cc3)[nH]n2)c(O)c1C	inactive	–
Brc1ccc(-c2cn3nc4c(nc3n2)CCCC4)cc1	inactive	–
CCC(=O)N(CC)C1=C(O)c2ccccc2C(=O)C1=O	inactive	–
CCn1c(O)c(N=NC(=O)CNC(=O)/C=C/c2ccco2)c2ccccc21	inactive	–
COC(=O)COc1ccc2c(c1)O/C(=C\c1cccc([N+](=O)[O-])c1)C2=O	inactive	–
O=C1N=c2ccccc2=C1c1[nH]c(=S)[nH]c1O	inactive	–
CN1C(=O)NC(c2ccccc2Cl)C2=C1CC(C)(C)CC2=O (configuration not stated)	inactive	–
CCOCCCn1c(=N)c(S(=O)(=O)c2ccccc2)cc2c(=O)n3cc(C)ccc3nc21	–	10.3 µM
Cc1c(C#N)c(O)[nH]c(=O)c1N=Nc1ccc(S(N)(=O)=O)cc1	inactive	–
Cc1ccc(Nc2nc(-c3ccc(C)cc3)c(CC(=O)O)s2)cc1	inactive	–
COC(=O)C1CSc2[nH]c(=O)sc2C1c1ccc(O)c(OC)c1 (configuration not stated)	inactive	–
O=C1C(Cl)=C(NC2CCCCC2)C(=O)N1c1ccc(Cl)cc1	–	> 10 µM (inactive)
CCOc1ccc2nc(N=Nc3c(O)[nH]c(=O)[nH]c3=O)sc2c1	inactive	–
CC(=O)c1c2c3c(c(Br)ccc3n(C)c1=O)C(=O)c1ccccc1-2	inactive	–
